Source: article PMC6150201, “Synthesis and Antitumor Activity of Novel Arylpiperazine Derivatives Containing the Saccharin Moiety” (Molecules : A Journal of Synthetic Chemistry and Natural …, 2017)
Read-outs that look alike come from different tables or passages of the source.

Tests used:
LNCaP cells [1] = test: In vitro cytotoxicity, CCK-8 assay, LNCaP cells; type: cell-based, human; details: for IC50: LNCaP, androgen-sensitive human prostate cancer cell line, CCK-8, 24 h exposure, mean ± SD of three experiments; for selective activity for LNCaP cells over other cancer cells: from IC50 comparison
Description: (§1) The synthesized target compounds 4–21 were evaluated for their in vitro cytotoxic activities against three human prostate cancer cell lines (PC-3, LNCaP, and DU145) and compared with their effects on the human prostate epithelial cell line WPMY-1 by CCK-8 assay.
(§2) PC-3 and WPMY-1 cells were cultured in Dulbecco’s modified Eagle’s medium (DMEM, Invitrogen, Carlsbad, CA, USA) supplemented with 10% fetal bovine serum (FBS, Hyclone, Logan, UT, USA), 100 U/mL penicillin, and 0.1 mg/mL streptomycin (Invitrogen). DU145 cells were cultured in RPMI1640 media supplemented with 10% fetal bovine serum (FBS, Hyclone), 100 U/mL penicillin, and 0.1 mg/mL streptomycin (Invitrogen). LNCaP cells were cultured in F12 media supplemented with 10% fetal bovine serum (FBS, Hyclone), 100 U/mL penicillin, and 0.1 mg/mL streptomycin (Invitrogen). The cells were incubated at 37 °C in a humidified atmosphere with 5% CO2.
(§3) Cell proliferation was measured with the Cell Counting Kit-8 (CCK-8) assay kit (Dojindo Corp., Kumamoto, Japan). Cells were harvested during their logarithmic growth phase, seeded in 96-well plates at a density of 1 × 10^5 cells/mL, and cultured at 37 °C in a humidified incubator (5% CO2) for 24 h, followed by exposure to various concentrations of compounds tested for 24 h. Subsequently, 10 μL of CCK-8 (Dojindo) was added to each well, and the cells were then incubated for an additional 1 h at 37 °C to convert WST-8 into formazan. Cell growth inhibition was determined by measuring the absorbance (Abs) at λ = 450 nm using a microplate reader. Three independent experiments were performed. Cell growth inhibition was calculated according to the following equation: Growth inhibition = (1 − OD of treated cells / OD of control cells) × 100%
(§4) The half maximal inhibitory concentrations (IC50) were obtained from a linear regression analysis of the concentration-response curves plotted for each tested compound.

WPMY-1 cells = test: In vitro cytotoxicity, CCK-8 assay, WPMY-1 prostate epithelial cells; type: cell-based, human; details: for IC50: WPMY-1, human prostate epithelial cell line, CCK-8, 24 h exposure, mean ± SD of three experiments
Description: as §1, §2, §3, §4

PC-3 cells [2] = test: In vitro cytotoxicity, CCK-8 assay, PC-3 cells; type: cell-based, human; details: for IC50: PC-3, androgen-insensitive human prostate cancer cell line, CCK-8, 24 h exposure, mean ± SD of three experiments; for selective activity for PC-3 cells over other cancer cells: from IC50 comparison
Description: as §1, §2, §3, §4

DU145 cells [3] = test: In vitro cytotoxicity, CCK-8 assay, DU145 cells; type: cell-based, human; details: for IC50: androgen-insensitive human prostate cancer cell line, CCK-8, 24 h exposure, mean ± SD of three experiments; for selective activity for DU145 cells over other cancer cells: in words, from IC50 comparison
Description: as §1, §2, §3, §4

PC-3 cells [4] = test system: PC-3 cells; set-up: method as in PMID 24910245; details: reference compound, SD not given; cited from earlier work
DU145 cells [5] = test system: DU145 cells; set-up: method as in PMID 24910245; details: reference compound, SD not given; cited from earlier work
LNCaP cells [6] = test system: LNCaP cells; set-up: method as in PMID 24910245; details: reference compound, SD not given; cited from earlier work

| Structure (SMILES) | melting point | IC50 (LNCaP cells [1]) | IC50 (WPMY-1 cells) | IC50 (PC-3 cells [2]) | IC50 (DU145 cells [3]; Homo sapiens, DU-145, 24 h) | IC50 (DU145 cells [3]) | selective activity for DU145 cells over other cancer cells (DU145 cells [3]) | selective activity for PC-3 cells over other cancer cells (PC-3 cells [2]; in words) | cytotoxic effects on human epithelial prostate normal cells WPMY-1 (in words) (WPMY-1 cells) | selective activity for LNCaP cells over other cancer cells (LNCaP cells [1]; in words) | cytotoxic activity for LNCaP cells (in words) (LNCaP cells [1]; in words) | cytotoxic activity for PC-3 cells (in words) (PC-3 cells [2]; in words) | IC50 (PC-3 cells [4]) | IC50 (DU145 cells [5]) | IC50 (LNCaP cells [6]) |
| --- | --- | --- | --- | --- | --- | --- | --- | --- | --- | --- | --- | --- | --- | --- | --- |
| O=C1c2ccccc2S(=O)(=O)N1Cc1ccc(CCN2CCN(c3ccccn3)CC2)cc1 [Compound 5, Saccharin N-(1-(4-(methyl)phenethyl)-4-(pyridin-2-yl)piperazine)] | 149 to 150 °C | > 50 µM | > 50 µM | > 50 µM | 3.57 ± 0.08 µM | – | excellent selective activity | – | – | – | – | – | – | – | – |
| O=C1c2ccccc2S(=O)(=O)N1Cc1ccc(CCN2CCN(c3ncccn3)CC2)cc1 [Compound 6, Saccharin N-(2-(4-(4-(methyl)phenethyl)piperazin-1-yl)pyrimidine)] | 153 to 154 °C | > 50 µM | 48.3 ± 0.56 µM | 4.84 ± 0.17 µM | > 50 µM | – | – | excellent selective activity | – | – | – | – | – | – | – |
| Cc1cccc(N2CCN(CCc3ccc(CN4C(=O)c5ccccc5S4(=O)=O)cc3)CC2)c1 [Compound 7, Saccharin N-(1-(4-(methyl)phenethyl)-4-m-tolylpiperazine)] | 126 to 127 °C | > 50 µM | > 50 µM | > 50 µM | 3.65 ± 0.1 µM | – | excellent selective activity | – | – | – | – | – | – | – | – |
| COc1cccc(N2CCN(CCc3ccc(CN4C(=O)c5ccccc5S4(=O)=O)cc3)CC2)c1 [Compound 9, Saccharin N-(1-(4-(methyl)phenethyl)-4-(3-methoxyphenyl)piperazine)] | 134 to 135 °C | > 50 µM | > 50 µM | 5.43 ± 0.18 µM | > 50 µM | – | – | excellent selective activity | – | – | – | – | – | – | – |
| O=C1c2ccccc2S(=O)(=O)N1Cc1ccc(CCN2CCN(c3ccccc3F)CC2)cc1 [Compound 11, Saccharin N-(1-(4-(methyl)phenethyl)-4-(2-fluorophenyl)piperazine)] | 137 to 138 °C | 47.5 ± 2.17 µM | > 50 µM | > 50 µM | > 50 µM | – | – | – | – | – | – | – | – | – | – |
| O=C1c2ccccc2S(=O)(=O)N1Cc1ccc(CCN2CCN(c3ccc(F)cc3F)CC2)cc1 [Compound 13, Saccharin N-(1-(4-(methyl)phenethyl)-4-(2,4-difluorophenyl)piperazine)] | 113 to 114 °C | 5.03 ± 0.13 µM | > 50 µM | > 50 µM | > 50 µM | – | – | – | – | excellent selective activity | – | – | – | – | – |
| O=C1c2ccccc2S(=O)(=O)N1Cc1ccc(CCN2CCN(c3ccccc3Cl)CC2)cc1 [Compound 14, Saccharin N-(1-(4-(methyl)phenethyl)-4-(2-chlorophenyl)piperazine)] | 135 to 136 °C | > 50 µM | – | 14.6 ± 1.12 µM | 3.39 ± 0.11 µM | – | excellent selective activity | – | – | – | – | – | – | – | – |
| O=C1c2ccccc2S(=O)(=O)N1Cc1ccc(CCN2CCN(c3cccc(Cl)c3)CC2)cc1 [Compound 15, Saccharin N-(1-(4-(methyl)phenethyl)-4-(3-chlorophenyl)piperazine)] | 143 to 144 °C | 3.43 ± 0.16 µM | > 50 µM | 2.74 ± 0.11 µM | > 50 µM | – | – | – | – | – | – | – | – | – | – |
| O=C1c2ccccc2S(=O)(=O)N1Cc1ccc(CCN2CCN(c3cccc(Cl)c3Cl)CC2)cc1 [Compound 17, Saccharin N-(1-(4-(methyl)phenethyl)-4-(2,3-dichlorophenyl)piperazine)] | 178 to 179 °C | 4.08 ± 0.15 µM | > 50 µM | > 50 µM | > 50 µM | – | – | – | weak cytotoxic effects | excellent selective activity | – | – | – | – | – |
| N#Cc1ccccc1N1CCN(CCc2ccc(CN3C(=O)c4ccccc4S3(=O)=O)cc2)CC1 [Compound 19, Saccharin N-(2-(4-(4-(methyl)phenethyl)piperazin-1-yl)benzonitrile)] | 146 to 147 °C | 5.14 ± 0.16 µM | 39.15 ± 0.17 µM | > 50 µM | > 50 µM | – | – | – | – | excellent selective activity | – | – | – | – | – |
| CC(C)(C)NC(=O)[C@H]1CC[C@H]2[C@@H]3CC[C@H]4NC(=O)C=C[C@]4(C)[C@H]3CC[C@]12C [Finasteride] | – | – | – | – | – | – | – | – | – | – | – | – | 17.8 µM | 13.5 µM | 14.5 µM |
| COc1ccccc1N1CCN(CC(O)COc2cccc3ccccc23)CC1 (centres unmarked) [Naftopidil, reference compound] | – | 22.4 ± 0.61 µM | > 50 µM | 42.1 ± 0.79 µM | 34.58 ± 0.31 µM | – | – | – | – | – | – | – | – | – | – |

Second part, led by results:

| melting point | Structure (SMILES) | IC50 (LNCaP cells [1]) | IC50 (WPMY-1 cells) | IC50 (PC-3 cells [2]) | IC50 (DU145 cells [3]; Homo sapiens, DU-145, 24 h) | IC50 (DU145 cells [3]) | selective activity for DU145 cells over other cancer cells (DU145 cells [3]) | selective activity for PC-3 cells over other cancer cells (PC-3 cells [2]; in words) | cytotoxic effects on human epithelial prostate normal cells WPMY-1 (in words) (WPMY-1 cells) | selective activity for LNCaP cells over other cancer cells (LNCaP cells [1]; in words) | cytotoxic activity for LNCaP cells (in words) (LNCaP cells [1]; in words) | cytotoxic activity for PC-3 cells (in words) (PC-3 cells [2]; in words) | IC50 (PC-3 cells [4]) | IC50 (DU145 cells [5]) | IC50 (LNCaP cells [6]) |
| --- | --- | --- | --- | --- | --- | --- | --- | --- | --- | --- | --- | --- | --- | --- | --- |
| 147 to 148 °C | O=C1c2ccccc2S(=O)(=O)N1Cc1ccc(CCN2CCN(c3ccccc3)CC2)cc1 [Compound 4, Saccharin N-(1-(4-(methyl)phenethyl)-4-phenylpiperazine)] | > 50 µM | > 50 µM | > 50 µM | < 2 µM | 1.28 ± 0.04 µM | excellent selective activity | – | – | – | – | – | – | – | – |
| 130 to 131 °C | Cc1ccc(N2CCN(CCc3ccc(CN4C(=O)c5ccccc5S4(=O)=O)cc3)CC2)cc1 [Compound 8, Saccharin N-(1-(4-(methyl)phenethyl)-4-p-tolylpiperazine)] | > 50 µM | – | > 50 µM | > 50 µM | – | – | – | – | – | – | – | – | – | – |
| 149 to 150 °C | COc1ccc(N2CCN(CCc3ccc(CN4C(=O)c5ccccc5S4(=O)=O)cc3)CC2)cc1 [Compound 10, Saccharin N-(1-(4-(methyl)phenethyl)-4-(4-methoxyphenyl)piperazine)] | > 50 µM | > 50 µM | 4.38 ± 0.13 µM | 2.28 ± 0.05 µM | – | – | – | – | – | – | – | – | – | – |
| 152 to 153 °C | O=C1c2ccccc2S(=O)(=O)N1Cc1ccc(CCN2CCN(c3ccc(F)cc3)CC2)cc1 [Compound 12, Saccharin N-(1-(4-(methyl)phenethyl)-4-(4-fluorophenyl)piperazine)] | > 50 µM | > 50 µM | > 50 µM | < 2 µM | 1.14 ± 0.1 µM | excellent selective activity | – | weak cytotoxic effects | – | – | – | – | – | – |
| 158 to 159 °C | O=C1c2ccccc2S(=O)(=O)N1Cc1ccc(CCN2CCN(c3ccc(Cl)cc3)CC2)cc1 [Compound 16] | > 50 µM | – | > 50 µM | > 50 µM | – | – | – | – | – | weak cytotoxic activity | weak cytotoxic activity | – | – | – |
| 105 to 106 °C | O=C1c2ccccc2S(=O)(=O)N1Cc1ccc(CCN2CCN(c3ccc(Br)cc3)CC2)cc1 [Compound 18, Saccharin N-(1-(4-(methyl)phenethyl)-4-(4-bromophenyl)piperazine)] | > 50 µM | > 50 µM | 2.25 ± 0.07 µM | 9.05 ± 0.23 µM | – | – | – | – | – | – | – | – | – | – |
| 179 to 180 °C | N#Cc1ccc(N2CCN(CCc3ccc(CN4C(=O)c5ccccc5S4(=O)=O)cc3)CC2)cc1 [Compound 20, Saccharin N-(4-(4-(4-(methyl)phenethyl)piperazin-1-yl)benzonitrile)] | 3.43 ± 0.1 µM | 46.3 ± 0.51 µM | 2.66 ± 0.04 µM | > 50 µM | – | – | – | – | – | – | – | – | – | – |
| 108 to 109 °C | O=C1c2ccccc2S(=O)(=O)N1Cc1ccc(CCN2CCN(c3ccc(C(F)(F)F)cc3)CC2)cc1 [Compound 21, Saccharin N-(1-(4-(methyl)phenethyl)-4-(4-(trifluoromethyl)phenyl)piperazine)] | > 50 µM | – | 3.73 ± 0.08 µM | > 50 µM | – | – | excellent selective activity | – | – | – | – | – | – | – |
